How the values were obtained:
[1] = system: Calu-6 NSCLC cell line harboring KRAS^Q61K mutation; test: Calu-6 xenograft, belvarafenib and selumetinib (Example 10); format: in vivo, mice; conditions: 17 days
melanoma = conditions: patients who have previously undergone anti-PD-1 treatment; cited from earlier work
[2] = system: SK-MEL-30 melanoma cell line harboring NRAS^Q61K mutation; test: SK-MEL-30 xenograft, belvarafenib and binimetinib (Example 9); format: in vivo, mice; conditions: 21 days
[3] = plasma protein binding of cobimetinib; format: in vitro ADME; conditions: concentration-independent
[4] = system: SK-MEL-30 human melanoma cell line harboring NRAS^Q61K mutation; conditions: mouse, in vivo, po
Method: (§1) Tumor volume in mm^3 and body weight change were measured at days 1, 4, 9 and 15.
(§2) Maximum inhibition rate (max inhib (%)) was determined by (1−(mean relative tumor weight in treated group/mean relative tumor weight control group))*100.

[5] = clinical pharmacokinetics of cobimetinib; conditions: for half-life: oral administration
[6] = Phase 1a/b study NCT03284502: pharmacokinetic analysis; format: in vivo, human; conditions: steady-state, dose normalized
[7] = system: SK-MEL-30 human melanoma cell line harboring NRAS^Q61K mutation; test: SK-MEL-30 xenograft, belvarafenib and cobimetinib (Example 7); conditions: 10 mg/kg QD orally, 14 days
Method: as §1, §2

advanced melanoma = conditions: cited from earlier work
[8] = atezolizumab Study PCD4989g; format: in vivo, human; conditions: single agent
Method: The pharmacokinetics of atezolizumab administered as a single agent have been characterized based on clinical data from study PCD4989g and are consistent with a currently ongoing Phase III Study WO29522 in first line treatment of TNBC. Atezolizumab anti-tumor activity has been observed across doses from 1 to 20 mg/kg. […] Atezolizumab dosing schedules of q3w and q2w have been tested. A fixed dose of atezolizumab 800 mg every two weeks (q2w) (equivalent to a body weight-based dose of 10 mg/kg q2w) results in equivalent exposure to the Phase III dose of 1200 mg administered every three weeks (q3w). The q3w schedule is being used in multiple Phase III studies of atezolizumab monotherapy across multiple tumor types and the q2w predominantly used in combination with chemotherapy regimens.

For `Cn1cnc2c(F)c(Nc3ccc(Br)cc3Cl)c(C(=O)NOCCO)cc21` [Selumetinib, reference compound], the “Day for max inhib” value ([1]; 5 mg/kg BID orally) was “Day 18”, the “Max inhib. Rate (%)” value ([1]; 5 mg/kg BID orally) was 59.0% and the “Max weight loss (%)” value ([1]; 5 mg/kg BID orally) was 1.5%. For the same molecule, the tolerability ([1]; single agent) was “well tolerated with or without minimal body weight loss”.

For “ipilimumab: anti-CTLA4 immunotherapy agent”, the response rate (melanoma) is given as “approximately 15%”.

In the case of `Cn1cnc2c(F)c(Nc3ccc(Br)cc3F)c(C(=O)NOCCO)cc21` [Binimetinib], the “Day for max inhib” value ([2]; 10 mg/kg QD orally) is reported as “Day 21”, the “Max inhib. Rate (%)” value ([2]; 10 mg/kg QD orally) is reported as 13.6% and the “Max weight loss (%)” value ([2]; 10 mg/kg QD orally) is reported as 0.8%. The “Day for max inhib” value ([2]; 30 mg/kg QD orally) was “Day 21”, the “Max inhib. Rate (%)” value ([2]; 30 mg/kg QD orally) was 27.1% and the tolerability ([2]; single agent, 10 and 30 mg/kg q.d.) was “well tolerated without marked body weight loss”.

In the case of `O=C(c1ccc(F)c(F)c1Nc1ccc(I)cc1F)N1CC(O)([C@@H]2CCCCN2)C1` [Cobimetinib, (S)-[3,4-Difluoro-2-(2-fluoro-4-iodophenylamino)phenyl][3-hydroxy-3-(piperidin-2-yl)azetidin-1-yl]methanone], the “binding to plasma proteins” value [3] is reported as 95%, the tolerability [4] is reported as “well tolerated without body weight loss” and the “pharmacokinetics in the fed state compared with the fasted state” value ([5]; healthy subjects) is reported as “not altered”. It also gave a bioavailability ([5]; human, in vivo, oral) of 45.9%, a Tmax ([5]; human, in vivo, po) of 1 to 3 h and a half-life ([5]; human, in vivo, po, mean terminal half-life (t½)) of 48.8 h. For the same molecule, the half-life ([5]; human, in vivo, po, terminal half-life (t½), range) was 23.1 to 80 h, the “effect of the proton pump inhibitor rabeprazole on cobimetinib pharmacokinetics” value ([5]; presence or absence of a high-fat meal) was “minimal effect” and the “drug-drug interaction with belvarafenib impacting cobimetinib exposure” value [6] was “no apparent drug-drug interaction”. For the same molecule, the “Day for max inhib” value [7] was “Day 15” and the “Max inhib. Rate (%)” value [7] was 54.3%.

In the case of “nivolumab: anti-PD-1 immunotherapy agent, monotherapy arm of a Phase III trial”, the “median OS” value (advanced melanoma; 5 years minimum follow-up) is given as 36.9 months and the PFS (advanced melanoma; Phase III trial of 1296 patients) is given as 6.9 months.

With “Atezolizumab: humanized IgG1 monoclonal antibody that targets PD-L1” the “Kaplan-Meier estimated overall 24-week progression-free survival (PFS) rate” value [8] was 33%.

— patent US20240366609A1 (Genentech, Inc., priority 2021, published 2024)
